ChEMBL document CHEMBL1201862, “PubChem BioAssay data set” (2004)
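Exposure lasted 48 hours, with cells grown in 96-well plates and compounds tested at five concentrations. GI50 is the concentration that inhibits growth by half.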 Calls of active or inactive are those of the source. Rule as the data show it: active = GI50 up to about 1.1 µM and inactive = higher.

Key:
Assay in all cases: NCI anticancer screen, dose series, 48 h
786-0 = test system: 786-0
A549 = test system: A549
ACHN = test system: ACHN
CAKI-1 = test system: CAKI-1
CCRF-CEM = test system: CCRF-CEM
COLO 205 = test system: COLO 205
DLD-1 = test system: DLD-1
DMS-114 = test system: DMS-114
DMS-273 = test system: DMS-273
EKVX = test system: EKVX
HCC 2998 = test system: HCC 2998
HCT-15 = test system: HCT-15
HL-60 = test system: HL-60
HOP-62 = test system: HOP-62
HOP-92 = test system: HOP-92
HT-29 = test system: HT-29
IGROV-1 = test system: IGROV-1
K562 = test system: K562
KM-20L2 = test system: KM-20L2
KM12 = test system: KM12
LOX IMVI = test system: LOX IMVI
LXFL 529 = test system: LXFL 529
M14 = test system: M14
M19-MEL = test system: M19-MEL
MOLT-4 = test system: MOLT-4
Malme-3M = test system: Malme-3M
NCI-H23 = test system: NCI-H23
NCI-H460 = test system: NCI-H460
NCI-H522 = test system: NCI-H522
OVCAR-3 = test system: OVCAR-3
OVCAR-4 = test system: OVCAR-4
OVCAR-5 = test system: OVCAR-5
OVCAR-8 = test system: OVCAR-8
RPMI-8226 = test system: RPMI-8226
RXF 393 = test system: RXF 393
SF-268 = test system: SF-268
SF-295 = test system: SF-295
SK-MEL-28 = test system: SK-MEL-28
SK-MEL-2 = test system: SK-MEL-2
SK-MEL-5 = test system: SK-MEL-5
SK-OV-3 = test system: SK-OV-3
SN12C = test system: SN12C
SNB-75 = test system: SNB-75
SNB-78 = test system: SNB-78
SW-620 = test system: SW-620
TK-10 = test system: TK-10
UACC-257 = test system: UACC-257
UACC-62 = test system: UACC-62
XF498 = test system: XF498
HCT-116 = test system: HCT-116
NCI-H226 = test system: NCI-H226
SF-539 = test system: SF-539
SNB-19 = test system: SNB-19
SR = test system: SR
U-251 = test system: U-251
UO-31 = test system: UO-31
A498 = test system: A498

O=C1CC(O)(c2ccccc2)C(c2ccccc2)=C1c1ccccc1 (stereo unspecified)
GI50 (786-0): 45 µM (inactive)
GI50 (A549): 39.1 µM (inactive)
GI50 (ACHN): 38 µM (inactive)
GI50 (CAKI-1): 31.3 µM (inactive)
GI50 (CCRF-CEM): 30.1 µM (inactive)
GI50 (COLO 205): 17.6 µM (inactive)
GI50 (DLD-1): 44.2 µM (inactive)
GI50 (DMS-114): 26.2 µM (inactive)
GI50 (DMS-273): 34.6 µM (inactive)
GI50 (EKVX): 40.9 µM (inactive)
GI50 (HCC 2998): 57.1 µM (inactive)
GI50 (HCT-15): 32.3 µM
GI50 (HL-60): 24.3 µM (inactive)
GI50 (HOP-62): 38.2 µM (inactive)
GI50 (HOP-92): 17.3 µM (inactive)
GI50 (HT-29): 42.8 µM (inactive)
GI50 (IGROV-1): 44 µM (inactive)
GI50 (K562): 30.5 µM (inactive)
GI50 (KM-20L2): 41.8 µM (inactive)
GI50 (KM12): 37.9 µM (inactive)
GI50 (LOX IMVI): 38.2 µM (inactive)
GI50 (LXFL 529): 35.3 µM (inactive)
GI50 (M14): 35.4 µM (inactive)
GI50 (M19-MEL): 29.6 µM (inactive)
GI50 (MOLT-4): 25.2 µM (inactive)
GI50 (Malme-3M): 46 µM (inactive)
GI50 (NCI-H23): 35.9 µM (inactive)
GI50 (NCI-H460): 33.2 µM (inactive)
GI50 (NCI-H522): 17.7 µM (inactive)
GI50 (OVCAR-3): 29.4 µM (inactive)
GI50 (OVCAR-4): 34.1 µM (inactive)
GI50 (OVCAR-5): > 100 µM (inactive)
GI50 (OVCAR-8): 47 µM (inactive)
GI50 (RPMI-8226): 20.7 µM (inactive)
GI50 (RXF 393): 28.7 µM (inactive)
GI50 (SF-268): 37.7 µM (inactive)
GI50 (SF-295): 32.4 µM (inactive)
GI50 (SK-MEL-28): 39.8 µM (inactive)
GI50 (SK-MEL-2): 25.5 µM (inactive)
GI50 (SK-MEL-5): 39.6 µM (inactive)
GI50 (SK-OV-3): > 100 µM (inactive)
GI50 (SN12C): 38.6 µM (inactive)
GI50 (SNB-75): 27.8 µM (inactive)
GI50 (SNB-78): 73.6 µM (inactive)
GI50 (SW-620): 94.4 µM (inactive)
GI50 (TK-10): 81.5 µM (inactive)
GI50 (UACC-257): 31.5 µM (inactive)
GI50 (UACC-62): 29.5 µM (inactive)
GI50 (XF498): 24.4 µM (inactive)

CC[N+](CC)(CC)Cc1cc2ccccc2n1C(=O)OC
GI50 (786-0): > 100 µM (inactive)
GI50 (A549): > 100 µM (inactive)
GI50 (ACHN): > 100 µM (inactive)
GI50 (CAKI-1): > 100 µM (inactive)
GI50 (CCRF-CEM): > 100 µM (inactive)
GI50 (COLO 205): > 100 µM (inactive)
GI50 (DLD-1): > 100 µM (inactive)
GI50 (DMS-114): > 100 µM (inactive)
GI50 (DMS-273): > 100 µM (inactive)
GI50 (HCC 2998): > 100 µM (inactive)
GI50 (HCT-116): > 100 µM (inactive)
GI50 (HCT-15): > 100 µM
GI50 (HL-60): > 100 µM (inactive)
GI50 (HOP-62): > 100 µM (inactive)
GI50 (HOP-92): > 100 µM (inactive)
GI50 (HT-29): > 100 µM (inactive)
GI50 (IGROV-1): > 100 µM (inactive)
GI50 (K562): > 100 µM (inactive)
GI50 (KM-20L2): > 100 µM (inactive)
GI50 (KM12): > 100 µM (inactive)
GI50 (LXFL 529): > 100 µM (inactive)
GI50 (M14): > 100 µM (inactive)
GI50 (M19-MEL): > 100 µM (inactive)
GI50 (MOLT-4): > 100 µM (inactive)
GI50 (Malme-3M): > 100 µM (inactive)
GI50 (NCI-H226): > 100 µM (inactive)
GI50 (NCI-H23): > 100 µM (inactive)
GI50 (NCI-H460): > 100 µM (inactive)
GI50 (NCI-H522): > 100 µM (inactive)
GI50 (OVCAR-3): 70.6 µM (inactive)
GI50 (OVCAR-4): > 100 µM (inactive)
GI50 (OVCAR-5): > 100 µM (inactive)
GI50 (OVCAR-8): > 100 µM (inactive)
GI50 (RPMI-8226): > 100 µM (inactive)
GI50 (SF-268): > 100 µM (inactive)
GI50 (SF-295): > 100 µM (inactive)
GI50 (SF-539): > 100 µM (inactive)
GI50 (SK-MEL-28): > 100 µM (inactive)
GI50 (SK-MEL-2): > 100 µM (inactive)
GI50 (SK-MEL-5): > 100 µM (inactive)
GI50 (SNB-19): > 100 µM (inactive)
GI50 (SNB-75): 87.9 µM (inactive)
GI50 (SR): > 100 µM (inactive)
GI50 (SW-620): > 100 µM (inactive)
GI50 (TK-10): > 100 µM (inactive)
GI50 (U-251): > 100 µM (inactive)
GI50 (UACC-257): > 100 µM (inactive)
GI50 (UACC-62): > 100 µM (inactive)
GI50 (UO-31): > 100 µM (inactive)
GI50 (XF498): > 100 µM (inactive)

CC12CCC(=O)N1[C@@H](c1ccccc1)[C@@H](c1ccccc1)O2 (stereo partly specified)
GI50 (786-0): > 100 µM (inactive)
GI50 (A498): > 100 µM (inactive)
GI50 (A549): > 100 µM (inactive)
GI50 (ACHN): > 100 µM (inactive)
GI50 (CAKI-1): > 100 µM (inactive)
GI50 (CCRF-CEM): > 100 µM (inactive)
GI50 (COLO 205): > 100 µM (inactive)
GI50 (DLD-1): 44 µM (inactive)
GI50 (DMS-114): > 100 µM (inactive)
GI50 (HCC 2998): > 100 µM (inactive)
GI50 (HCT-116): > 100 µM (inactive)
GI50 (HCT-15): > 100 µM
GI50 (HL-60): > 100 µM (inactive)
GI50 (HOP-62): > 100 µM (inactive)
GI50 (HOP-92): 84.7 µM (inactive)
GI50 (HT-29): > 100 µM (inactive)
GI50 (IGROV-1): > 100 µM (inactive)
GI50 (K562): > 100 µM (inactive)
GI50 (KM-20L2): > 100 µM (inactive)
GI50 (KM12): > 100 µM (inactive)
GI50 (LOX IMVI): > 100 µM (inactive)
GI50 (LXFL 529): > 100 µM (inactive)
GI50 (M14): > 100 µM (inactive)
GI50 (M19-MEL): > 100 µM (inactive)
GI50 (MOLT-4): > 100 µM (inactive)
GI50 (Malme-3M): > 100 µM (inactive)
GI50 (NCI-H226): > 100 µM (inactive)
GI50 (NCI-H460): > 100 µM (inactive)
GI50 (NCI-H522): > 100 µM (inactive)
GI50 (OVCAR-3): > 100 µM (inactive)
GI50 (OVCAR-4): > 100 µM (inactive)
GI50 (OVCAR-5): > 100 µM (inactive)
GI50 (OVCAR-8): > 100 µM (inactive)
GI50 (SF-268): > 100 µM (inactive)
GI50 (SF-295): > 100 µM (inactive)
GI50 (SF-539): > 100 µM (inactive)
GI50 (SK-MEL-2): > 100 µM (inactive)
GI50 (SK-MEL-5): > 100 µM (inactive)
GI50 (SK-OV-3): 68.9 µM (inactive)
GI50 (SN12C): > 100 µM (inactive)
GI50 (SNB-19): > 100 µM (inactive)
GI50 (SNB-75): > 100 µM (inactive)
GI50 (SW-620): > 100 µM (inactive)
GI50 (UACC-257): > 100 µM (inactive)
GI50 (UACC-62): 42.5 µM (inactive)
GI50 (UO-31): > 100 µM (inactive)
GI50 (XF498): > 100 µM (inactive)
